Experimental data reported in patent US9675642B2, “Engineered dendritic cells and uses for the treatment of cancer” (Intrexon Corporation, priority 2007, dated 2017).

Columns and labels:
GL261 gliomas = assay: Intracranial GL261 glioma survival, i.t. transduced DC plus i.p. RG-115830; assay type: in vivo, mice; details: at 50 days; DC expressing IFN-alpha and IL-12 under RTS, RG-115830 intra-peritoneal
Source text: Abbreviations in this figure are as follows: Ad-IFNa is Adenoviral vector constitutively expressing IFN-alpha; Ad-RTS-IFNa is Adenoviral vector encoding IFN-alpha under RTS control; Ad-RTS-IFNa no ligand is Adenoviral vector containing RTS and IFN-alpha where no activator ligand was present; Ad-IFNa/IL-12 corresponds to DC transduced with Adenoviral vectors encoding IFN-alpha and IL-12; and Ad-RTS-IFNa/IL-12 corresponds to DC transduced with two Adenoviral vectors encoding IFN-alpha and IL-12 under RTS control.
In this example, dendritic cells were isolated from bone marrow, transduced with the Adenoviral constructs depicted in FIG. 7, and mice bearing syngeneic intracranial GL261 gliomas were intratumorally injected with engineered dendritic cells; and RG-115830 was injected intra-peritoneal. […] The data reveal that ligand induced expression of IFN-alpha and IL-12 through activation of the RTS with RG-115830 ligand promoted 75 percent survival at 50 days of GL261 glioma mice; as compared to IFN-alpha expression alone. Furthermore, the control provided by the RheoSwitch and ligand promoted enhanced survival.

[1] = test system: DC infected with rAd.RheoIL12 (DC.RheoIL12); assay: IL-12p70 secretion by adenovirus-infected murine BM-derived DC (ELISA); assay type: cell-based, mouse
Procedure: DCs were generated from murine bone marrow as previously described (Tatsumi et al., 2003). Briefly, wild-type or EGFP Tg mouse BM was cultured in CM supplemented with 1000 units/ml recombinant murine granulocyte/macrophage colony-stimulating factor and recombinant mIL-4 (Peprotech, Rocky Hill, N.J.) at 37° C. in a humidified, 5% CO2 incubator for 7 days. CD11c^+ DC were then isolated using specific MACSTM beads, per the manufacturer's protocol (Miltenyi Biotec, Auburn, Calif.). CD11c^+ DC produced in this manner were >95% pure based on morphology and co-expression of the CD11b, CD40, CD80, and class I and class II MHC antigens.
Day 7 cultured DC were untreated, were infected with recombinant Ads encoding murine IL-12p70 driven off a constitutive (rAd.cIL12) or inducible (rAd.RheoIL12) promoter, or were infected with mock, control vector rAdψ5, over a range of MOIs. At various time points after this (0-48 h), DC were then cultured in the absence or presence of an activating ligand (10-200 μg/ml) for an additional 24 h prior to analysis of IL-12p70 secretion using a specific ELISA kit (BDPharMingen, San Diego, Calif.; lower level of detection=62.5 pg/ml). […] Alternatively, after 48 h, infected DC were harvested and analyzed for phenotype and for production of IL-12p70 using the ELISA kit (BD-PharMingen, San Diego, Calif.), with a lower level of detection of 62.5 pg/ml. […]

B16 melanoma [2] = assay: Established s.c. B16 melanoma, i.t. DC plus i.p. RG-115830; assay type: in vivo, C57BL/6 mice; details: RG-115830 alone, or DC.RheoIL12 in the absence of RG-115830
Procedure: B6 mice received subcutaneous injection of 1×10^5 B16 melanoma cells in the right flank on day 0. On day 7, tumors reached a size of approximately 20-30 mm^2 and mice were treated with i.t. injections of PBS or 1×10^6 control vs. adenoviral transduced (MOI=100) DC in a total volume of 50 μl of PBS. Mice also received i.p. injections of 200 μg RG-115830 (in 50 μl DMSO) vs. DMSO carrier control that were initiated at 0 h, 24 h or 48 h post-DC administration, as indicated. After initiation, mice received a total of 5 consecutive daily intraperitoneal injections of RG-115830 at this dose. In additional experiments, ligand was administered beginning on the day of DC injection and then terminated 1, 3 or 5 days post-DC injection to discern whether early cessation of IL-12p70 transgene promotion reduced the therapeutic benefits of this approach. In all cases, tumor size was assessed every 3 or 4 days and recorded in mm^2 by determining the product of the largest perpendicular diameters measured by vernier calipers. Data are reported as the average tumor area±SD. All animal cohorts contained 5 mice/group.
B16 melanoma cells (1×10^5) were injected s.c. in the […] flank of syngenic H-2^b B6 mice and allowed to establish. On day 7, mice were randomized into cohorts of 5 animals each, with a mean cohort tumor size of approximately 20-30 mm^2. […]

[3] = test system: human and mouse cell lines and primary dendritic cells transduced with recombinant adenoviral vector carrying the genes for IL12; assay: IL12 induction in cell lines and primary DC transduced with IL12 adenoviral vector; assay type: cell-based; details: in vitro
[4] = test system: human dendritic cells transduced with adenoviral vector Ad-RTS-mIL-12; assay: IL-12 production by human DC transduced with Ad-RTS-mIL-12; assay type: cell-based; details: 3 hour viral adsorption at MOI of 500
Source text: The activator drug (“AD” or “activating ligand”) induced IL-12 expression in these transduced human dendritic cells.

RTS = assay: Activation of the RTS by ligand enantiomer; details: R enantiomer versus racemic mixture
Procedure: DC-SP1 i.t. therapy using i.p. administered ligand yielded a clear ligand dose-tumor inhibition response pattern, with optimal anti-tumor effects at ligand doses >30 mg/kg/day. […] 20-22.5 mg/kg/day of the active enantiomer. […] The availability of oral administration of the ligand would ease the burden of the treatment on patients.
The recombinant DNA used as the recombinant adenoviral vector allows the expression of human IL-12 under the control of the RheoSwitch® Therapeutic System (RTS). The RTS comprises a bicistronic message expressed from the human Ubiquitin C promoter and codes for two fusion proteins: Gal4-EcR and VP16-RXR. Gal4-EcR is a fusion between the DNA binding domain (amino acids 1-147) of yeast Gal4 and the DEF domains of the ecdysone receptor from the insect Choristoneura fumiferana. […] VP16-RXR is a fusion between the transcription activation domain of HSV-VP16 and the EF domains of a chimeric RXR derived from human and locust sequences. […]

B16 melanoma [5] = assay: DC dose and duration of ligand administration in B16 melanoma; assay type: in vivo, B6 mice
Procedure: Tumor bearing mice were given a single intratumoral injection of AdDCs at doses of 10^5, 10^6, and 10^7 cells and daily i.p. injection of Activating Ligand at a single dose of 30 mg/kg/day for 6 days or 13 days beginning on the day of the injection of 10^7 cells. […] There was no effect of the Activating Ligand alone (without AdDCs) on tumor growth.
In a similar experiment to FIG. 12, the Activating Ligand was administered by oral gavage for 9 and 12 days. The anti-tumor dose response with an oral formulation of the Activating Ligand at different doses in Labrasol was assessed.
B16 melanomas were established s.c. for 7 days in the right flanks of 5 syngeneic B6 mice. On day 7, DC.SP1-IL-12 (bone marrow derived DC infected at an MOI of 100 using the SP1 optimal switch) were injected intratumorally (i.t.) at doses of 10E5, 10E6 or 10E7. RG-115932 was provided by i.p. injection beginning on the day of DC injection (and daily thereafter for either 6 days or 13 days). Each cohort contained 5 animals, with tumor growth monitored every 3-4 days and reported as mean size (mm squared based on the product of orthogonal measurements). Individual animal weights were also assessed at the time of tumor measurements (FIG. 13). All animals rendered free of disease by any therapy were rechallenged on day 50 (post-initial B16 tumor inoculation) with 10E5 B16 melanoma cells on the opposite flank (left flank) of the original tumor and with 10E5 MC38 colon carcinoma cells on the right flank. Tumor growth was monitored every 3-4 days and compared against growth observed in naïve (untreated) animals (see FIG. 12).

B16 melanomas = assay: Ligand route/dose comparison with i.t. DC.SP1-IL12 in B16 melanoma; assay type: in vivo, B6 mice
Procedure: B16 melanomas were established s.c. for 7 days in the right flanks of syngenic B6 mice. On day 7, 10^6 DC.SP1-IL12 (optimal switch identified in FIG. 10 comparison) were injected intratumorally (i.t.). Activating ligand (RG-115932) was provided either as an injection i.p., via oral gavage in Labrasol, or via drug-containing chow provided ad libitum beginning on the day preceding DC injection (and daily thereafter for 6 days). Each cohort contained 5 animals, with tumor growth monitored every 3-4 days and reported as mean size (mm^2 based on the product of orthogonal measurements). The treatment for each cohort is described below.

[6] = test system: mouse dendritic cells transduced with Ad-RTS-mIL-12; assay: Activator Drug dose-dependent IL-12 expression in mouse DC transduced with Ad-RTS-mIL-12; assay type: cell-based; details: varying doses of Activator Drug

| Structure (SMILES) | survival (GL261 gliomas) | RG-115830 concentration for optimal infected DC production of IL-12p70 ([1]; MOI of 100) | IL-12p70 production after delayed provision of RG-115830 ([1]; delayed for up to 48 h compared to 0 h timepoint) | therapeutic benefit (B16 melanoma [2]) | IL12 expression [3] | IL-12 expression [4] | activation of the RTS (RTS) | tumor regression (B16 melanoma [5]; 13 days in a row with 10^7 dendritic cells) | suppression of tumor growth, 13 days instead of 6 days of ligand (B16 melanoma [5]; i.p. 30 mg/kg/day with AdDCs) | anti-tumor dose response, oral ligand (B16 melanoma [5]; oral gavage in Labrasol for 9 and 12 days) | oral dose with the greatest responses (B16 melanoma [5]; orally for 12 days, Labrasol) | tumor growth, ligand alone (B16 melanoma [5]; without AdDCs) | efficacy by route of ligand administration (B16 melanomas; DC-SP1 i.t. therapy, ligand 30 mg/kg/day) | ligand dose giving optimal anti-tumor effects (B16 melanomas; DC-SP1 i.t. therapy, ligand i.p.) | efficacy by route in mouse melanoma model (B16 melanomas; DCs transduced with murine IL-12 under RTS) | B16 tumor growth, ligand alone (B16 melanomas; no DC, any dose or any route) | IL-12 production [6] |
| --- | --- | --- | --- | --- | --- | --- | --- | --- | --- | --- | --- | --- | --- | --- | --- | --- | --- |
| CCCC(N(NC(=O)c1cccc(OC)c1CC)C(=O)c1cc(C)cc(C)c1)C(C)(C)C (centres unmarked) [RG-115830, 3,5-Dimethyl-benzoic acid N-(1-tert-butyl-butyl)-N′-(2-ethyl-3-methoxy-benzoyl)-hydrazide] | 75% | 50 to 200 µg/mL | did not result in any significantly reduced production of IL-12p70 | failed to yield any therapeutic benefit | – | – | – | – | – | – | – | – | – | – | – | – | – |
| CCC[C@@H](N(NC(=O)c1cccc(OC)c1CC)C(=O)c1cc(C)cc(C)c1)C(C)(C)C [RG-115932, (R)-3,5-Dimethyl-benzoic acid N-(1-tert-butyl-butyl)-N′-(2-ethyl-3-methoxy-benzoyl)-hydrazide] | – | – | – | – | induction of IL12 expression in response to the activator drug in a dose dependent way | induced IL-12 expression in these transduced human DCs | capable of activating the RTS | effective in causing tumor regression over a 25 day period | significantly more robust suppression of tumor growth | dose dependent anti-tumor effect | 50 mg/kg/day | no effect | equally effective if ligand is administered by i.p. injection, oral gavage, or diet admix | > 30 mg/kg/day | effective in intraperitoneal and oral routes | had no impact on B16 tumor growth | produced IL-12 in a dose dependent manner |
